Our source for the IC50 values is patent US11649255B2, “Indazoles as hematopoietic progenitor kinase 1 (HPK1) inhibitors and methods using same” (1st Biotherapeutics, Inc., priority 2020, dated 2023).

Some results are limits rather than exact numbers.

This experiment concerns the target recombinant human HPK1 (Homo sapiens (Human), UniProt Q92918). The experiment can be described thus: HPK1 kinase assay (ADP-Glo). The experiment is classed as biochemical. The settings on record: 25 μM ATP, MBP substrate. The method, boiled down: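 Activity was read as ADP formed, detected by ADP-Glo luminescence after the reaction of 5 ng recombinant human HPK1 with MBP and ATP (stocks 0.5 μg/μl and 25 μM) for 40 min at 30 °C. Buffer was Tris pH 7.5 with MgCl2, BSA and DTT, with compound in 0.5% DMSO. IC50 came from inhibition curves.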
Background: In ADP-Glo the light output rises with the ADP produced.

recombinant human HPK1, sequence (Q92918 whole entry): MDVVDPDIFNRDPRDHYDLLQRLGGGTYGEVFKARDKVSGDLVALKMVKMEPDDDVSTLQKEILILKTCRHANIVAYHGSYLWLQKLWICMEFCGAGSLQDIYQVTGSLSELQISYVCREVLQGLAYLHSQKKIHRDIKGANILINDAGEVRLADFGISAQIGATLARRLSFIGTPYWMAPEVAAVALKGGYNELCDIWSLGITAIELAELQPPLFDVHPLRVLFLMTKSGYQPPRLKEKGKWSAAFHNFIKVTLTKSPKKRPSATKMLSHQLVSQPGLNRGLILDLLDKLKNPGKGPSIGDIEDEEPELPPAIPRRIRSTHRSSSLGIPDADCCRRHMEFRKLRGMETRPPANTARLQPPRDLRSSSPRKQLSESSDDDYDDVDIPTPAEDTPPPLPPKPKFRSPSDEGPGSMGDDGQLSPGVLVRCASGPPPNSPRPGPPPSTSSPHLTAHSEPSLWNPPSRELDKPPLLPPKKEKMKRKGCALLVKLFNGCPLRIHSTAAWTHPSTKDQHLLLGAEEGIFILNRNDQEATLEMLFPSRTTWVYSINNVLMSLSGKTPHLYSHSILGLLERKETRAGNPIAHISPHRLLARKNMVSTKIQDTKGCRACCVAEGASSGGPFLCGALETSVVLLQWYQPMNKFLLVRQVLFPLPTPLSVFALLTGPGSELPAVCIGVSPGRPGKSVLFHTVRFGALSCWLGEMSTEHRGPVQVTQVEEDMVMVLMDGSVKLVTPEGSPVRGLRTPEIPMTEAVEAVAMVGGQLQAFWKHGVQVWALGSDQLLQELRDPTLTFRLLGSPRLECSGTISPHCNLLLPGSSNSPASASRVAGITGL

What is called IC50 is the concentration that inhibits the measured activity by half. For `C[S+]([O-])c1c(F)cc2[nH]ncc2c1-c1ccc2nc(NC(=O)[C@@H]3C[C@@H]3F)sc2n1` (stereo partly drawn) [Example 164, (1S,2S)-2-fluoro-N-(5-(6-fluoro-5-(methylsulfinyl)-1H-indazol-4-yl)thiazolo[5,4-b]pyridin-2-yl)cyclopropane-1-carboxamide], the IC50 is more than 1000 nM.

As for `CCOC(=O)CSc1c(F)c(CC)c(-c2ccc3nc(NC(=O)[C@@H]4C[C@@H]4F)sc3n2)c2cn[nH]c12` [Example 165, ethyl 2-((5-ethyl-6-fluoro-4-(2-((1S,2S)-2-fluorocyclopropane-1-carboxamido)thiazolo[5,4-b]pyridin-5-yl)-1H-indazol-7-yl)thio)acetate], the IC50 was less than 100 nM.

Consider `CCc1c(F)c(SCC(=O)N(C)C)c2[nH]ncc2c1-c1ccc2nc(NC(=O)[C@@H]3C[C@@H]3F)sc2n1` [Example 166, (1S,2S)-N-(5-(7-((2-(dimethylamino)-2-oxoethyl)thio)-5-ethyl-6-fluoro-1H-indazol-4-yl)thiazolo[5,4-b]pyridin-2-yl)-2-fluorocyclopropane-1-carboxamide], for which the IC50 was less than 100 nM.

For the compound `CCc1c(F)c(SCC(=O)O)c2[nH]ncc2c1-c1ccc2nc(NC(=O)[C@@H]3C[C@@H]3F)sc2n1` [Example 168, 2-((5-ethyl-6-fluoro-4-(2-((1S,2S)-2-fluorocyclopropane-1-carboxamido)thiazolo[5,4-b]pyridin-5-yl)-1H-indazol-7-yl)thio)acetic acid], the IC50 was 101 to 500 nM.

On to `O=C(Nc1nc2ccc(-c3c(F)c(C(F)(F)F)cc4[nH]ncc34)nc2s1)[C@@H]1C[C@@H]1F` [Example 171, (1S,2S)-2-fluoro-N-(5-(5-fluoro-6-(trifluoromethyl)-1H-indazol-4-yl)thiazolo[5,4-b]pyridin-2-yl)cyclopropane-1-carboxamide], for which the IC50 is more than 1000 nM.

On to `CCc1c(F)c(F)c2[nH]ncc2c1-c1ccc2nc(NC(=O)[C@@H]3C[C@@H]3F)sc2n1` [Example 176, (1S,2S)-N-(5-(5-ethyl-6,7-difluoro-1H-indazol-4-yl)thiazolo[5,4-b]pyridin-2-yl)-2-fluorocyclopropane-1-carboxamide], for which the IC50 is less than 100 nM.

With `Cc1c(F)c([S+](C)[O-])c2[nH]ncc2c1-c1ccc2nc(NC(=O)[C@@H]3C[C@@H]3F)sc2n1` (stereo partly drawn) [Example 177, (1S,2S)-2-fluoro-N-(5-(6-fluoro-5-methyl-7-(methylsulfinyl)-1H-indazol-4-yl)thiazolo[5,4-b]pyridin-2-yl)cyclopropane-1-carboxamide], the IC50 is 101 to 500 nM.

With `CCOc1c(F)c(CC)c(-c2ccc3nc(NC(=O)[C@@H]4C[C@@H]4F)sc3n2)c2cn[nH]c12` [Example 178, (1S,2S)-N-(5-(7-ethoxy-5-ethyl-6-fluoro-1H-indazol-4-yl)thiazolo[5,4-b]pyridin-2-yl)-2-fluorocyclopropane-1-carboxamide], the IC50 is less than 100 nM.

Turning to `CC(=O)Nc1c(F)c(Cl)c(-c2ccc3nc(NC(=O)[C@@H]4C[C@@H]4F)sc3n2)c2cn[nH]c12` [Example 179, (1S,2S)-N-(5-(7-acetamido-5-chloro-6-fluoro-1H-indazol-4-yl)thiazolo[5,4-b]pyridin-2-yl)-2-fluorocyclopropane-1-carboxamide], the IC50 is less than 100 nM.

Consider `C[S+]([O-])c1c(F)c(Cl)c(-c2ccc3nc(NC(=O)[C@@H]4C[C@@H]4F)sc3n2)c2cn[nH]c12` (stereo partly drawn) [Example 180, (1S,2S)-N-(5-(5-chloro-6-fluoro-7-(methylsulfinyl)-1H-indazol-4-yl)thiazolo[5,4-b]pyridin-2-yl)-2-fluorocyclopropane-1-carboxamide], for which the IC50 lay in the range of 101 to 500 nM.

As to `CC(=O)Nc1c(F)c(C)c(-c2ccc3nc(NC(=O)[C@@H]4C[C@@H]4F)sc3n2)c2cn[nH]c12` [Example 181, (1S,2S)-N-(5-(7-acetamido-6-fluoro-5-methyl-1H-indazol-4-yl)thiazolo[5,4-b]pyridin-2-yl)-2-fluorocyclopropane-1-carboxamide], the IC50 lay in the range of 101 to 500 nM.

As to `COC(=O)c1c(F)c(C)c(-c2ccc3nc(NC(=O)[C@@H]4C[C@@H]4F)sc3n2)c2cn[nH]c12` [Example 183, methyl 6-fluoro-4-(2-((1S,2S)-2-fluorocyclopropane-1-carboxamido)thiazolo[5,4-b]pyridin-5-yl)-5-methyl-1H-indazole-7-carboxylate], the IC50 is less than 100 nM.

For `CS(=O)(=O)c1c(F)c(Cl)c(-c2ccc3nc(NC(=O)[C@@H]4C[C@@H]4F)sc3n2)c2cn[nH]c12` [Example 185, (1S,2S)-N-(5-(5-chloro-6-fluoro-7-(methylsulfonyl)-1H-indazol-4-yl)thiazolo[5,4-b]pyridin-2-yl)-2-fluorocyclopropane-1-carboxamide], the IC50 was in the range of 101 to 500 nM.

With `Cc1c(F)c(F)c2[nH]ncc2c1-c1ccc2nc(NC(=O)[C@@H]3C[C@@H]3F)sc2n1` [Example 186, (1S,2S)-N-(5-(6,7-difluoro-5-methyl-1H-indazol-4-yl)thiazolo[5,4-b]pyridin-2-yl)-2-fluorocyclopropane-1-carboxamide], the IC50 is less than 100 nM.

Consider `CSc1c(F)c(F)c2[nH]ncc2c1-c1ccc2nc(NC(=O)[C@@H]3C[C@@H]3F)sc2n1` [Example 187, (1S,2S)-N-(5-(6,7-difluoro-5-(methylthio)-1H-indazol-4-yl)thiazolo[5,4-b]pyridin-2-yl)-2-fluorocyclopropane-1-carboxamide], for which the IC50 is less than 100 nM.

Regarding `Cc1c(F)c(C(=O)O)c2[nH]ncc2c1-c1ccc2nc(NC(=O)[C@@H]3C[C@@H]3F)sc2n1` [Example 188, 6-fluoro-4-(2-((1S,2S)-2-fluorocyclopropane-1-carboxamido)thiazolo[5,4-b]pyridin-5-yl)-5-methyl-1H-indazole-7-carboxylic acid], the IC50 is more than 1000 nM.

In the case of `CC(=O)N(C)c1c(F)c(Cl)c(-c2ccc3nc(NC(=O)[C@@H]4C[C@@H]4F)sc3n2)c2cn[nH]c12` [Example 189, (1S,2S)-N-(5-(5-chloro-6-fluoro-7-(N-methylacetamido)-1H-indazol-4-yl)thiazolo[5,4-b]pyridin-2-yl)-2-fluorocyclopropane-1-carboxamide], the IC50 is less than 100 nM.

Consider `CNNc1c(F)c(Cl)c(-c2ccc3nc(NC(=O)[C@@H]4C[C@@H]4F)sc3n2)c2cn[nH]c12` [Example 191, (1S,2S)-N-(5-(5-chloro-6-fluoro-7-(2-methylhydrazineyl)-1H-indazol-4-yl)thiazolo[5,4-b]pyridin-2-yl)-2-fluorocyclopropane-1-carboxamide], for which the half-maximal inhibitory concentration (IC50) is less than 100 nM.

As to `CN(Nc1c(F)c(Cl)c(-c2ccc3nc(NC(=O)[C@@H]4C[C@@H]4F)sc3n2)c2cn[nH]c12)C(=O)OC(C)(C)C` [Example 192, tert-butyl 2-(5-chloro-6-fluoro-4-(2-((1S,2S)-2-fluorocyclopropane-1-carboxamido)thiazolo[5,4-b]pyridin-5-yl)-1H-indazol-7-yl)-1-methylhydrazine-1-carboxylate], the IC50 is less than 100 nM.

In the case of `CNC(=O)c1c(F)c(Cl)c(-c2ccc3nc(NC(=O)[C@@H]4C[C@@H]4F)sc3n2)c2cn[nH]c12` [Example 195, 5-chloro-6-fluoro-4-(2-((1S,2S)-2-fluorocyclopropane-1-carboxamido)thiazolo[5,4-b]pyridin-5-yl)-N-methyl-1H-indazole-7-carboxamide], the 50% inhibitory concentration (IC50) fell in the range of 101 to 500 nM.

Turning to `Cc1c(F)c(C(=O)N(C)C)c2[nH]ncc2c1-c1ccc2nc(NC(=O)[C@@H]3C[C@@H]3F)sc2n1` [Example 197, 6-fluoro-4-(2-((1S,2S)-2-fluorocyclopropane-1-carboxamido)thiazolo[5,4-b]pyridin-5-yl)-N,N,5-trimethyl-1H-indazole-7-carboxamide], the IC50 was less than 100 nM.

For the compound `O=C(Nc1nc2ccc(-c3c(C(F)(F)F)c(F)c(Cl)c4[nH]ncc34)nc2s1)[C@@H]1C[C@@H]1F` [Example 198, (1S,2S)-N-(5-(7-chloro-6-fluoro-5-(trifluoromethyl)-1H-indazol-4-yl)thiazolo[5,4-b]pyridin-2-yl)-2-fluorocyclopropane-1-carboxamide], the IC50 is less than 100 nM.

In the case of `CCc1c(F)c(N(C)CC)c2[nH]ncc2c1-c1ccc2nc(NC(=O)[C@@H]3C[C@@H]3F)sc2n1` [Example 200, (1S,2S)-N-(5-(5-ethyl-7-(ethyl(methyl)amino)-6-fluoro-1H-indazol-4-yl)thiazolo[5,4-b]pyridin-2-yl)-2-fluorocyclopropane-1-carboxamide], the IC50 was less than 100 nM.

As to `CCOc1c(F)cc2[nH]ncc2c1-c1ccc2nc(NC(=O)[C@@H]3C[C@@H]3F)sc2n1` [Example 201, (1S,2S)-N-(5-(5-ethoxy-6-fluoro-1H-indazol-4-yl)thiazolo[5,4-b]pyridin-2-yl)-2-fluorocyclopropane-1-carboxamide], the IC50 is more than 1000 nM.

Regarding `CNC(=O)OCCN(C)c1c(F)c(C)c(-c2ccc3nc(NC(=O)[C@@H]4C[C@@H]4F)sc3n2)c2cn[nH]c12` [Example 202, 2-((6-fluoro-4-(2-((1S,2S)-2-fluorocyclopropane-1-carboxamido)thiazolo[5,4-b]pyridin-5-yl)-5-methyl-1H-indazol-7-yl)(methyl)amino)ethyl methylcarbamate], the IC50 is less than 100 nM.

For `Cc1c(F)c(N(C)CCO)c2[nH]ncc2c1-c1ccc2nc(NC(=O)[C@@H]3C[C@@H]3F)sc2n1` [Example 204, (1S,2S)-2-fluoro-N-(5-(6-fluoro-7-((2-hydroxyethyl)(methyl)amino)-5-methyl-1H-indazol-4-yl)thiazolo[5,4-b]pyridin-2-yl)cyclopropane-1-carboxamide], the IC50 was less than 100 nM.

Take `Cc1c(F)c(C(F)(F)F)c2[nH]ncc2c1-c1ccc2nc(NC(=O)[C@@H]3C[C@@H]3F)sc2n1` [Example 205, (1S,2S)-2-fluoro-N-(5-(6-fluoro-5-methyl-7-(trifluoromethyl)-1H-indazol-4-yl)thiazolo[5,4-b]pyridin-2-yl)cyclopropane-1-carboxamide]: the IC50 is less than 100 nM.
